Values joined by “and” are separate entries in the source; they are usually repeats but may differ in a detail not shown here. Identical values can stand only once. Like-named read-outs stand apart in the source and are kept apart here.
What was measured:
HCT116 cells = details: after HRO761 treatment
Protocol: Membranes were incubated overnight with the primary antibodies and for 1 h with the secondary antibodies. Washing steps were performed with 1× PBS containing 0.01% Tween-20. […] We performed the immunoblots three times except for blots shown in Figs. 2e and 4c and Extended Data Figs. 6b and 8f, which were performed twice. […] Uncropped and unprocessed scans of all blots are available as a Supplementary Figs. 1 (main text figures, which contain Figs. 2d,e, 3a,g and 4c) and 2 (Extended Data Figs. 1d,h,i, 3b–e,h,i, 5, 6a,b, 7c, 8b,g) in the Supplementary Information.

LS411N = assay: CFA 10-14 day clonogenic assay; assay type: cell-based; details: Homo sapiens, LS-411N
PXR = PXR (Homo sapiens, UniProt O75469); assay: PXR activation; assay type: in vitro ADME
Sequence of PXR (O75469 whole entry, species assumed): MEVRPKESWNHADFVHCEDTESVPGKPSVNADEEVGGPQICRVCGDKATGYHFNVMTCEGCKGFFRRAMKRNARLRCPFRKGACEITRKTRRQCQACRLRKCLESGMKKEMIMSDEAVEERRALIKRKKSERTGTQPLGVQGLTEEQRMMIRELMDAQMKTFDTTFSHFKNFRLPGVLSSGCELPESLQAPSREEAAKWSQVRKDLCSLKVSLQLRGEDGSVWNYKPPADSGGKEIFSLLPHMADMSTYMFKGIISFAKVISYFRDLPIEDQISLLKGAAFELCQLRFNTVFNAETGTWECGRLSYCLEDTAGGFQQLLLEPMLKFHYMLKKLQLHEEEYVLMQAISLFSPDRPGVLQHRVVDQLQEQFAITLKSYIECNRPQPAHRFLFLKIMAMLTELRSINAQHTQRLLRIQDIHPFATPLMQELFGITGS

HCT116 = assay: 4 day proliferation assay (CellTiter-Glo)
HEC251 = assay: CFA 10-14 day clonogenic assay; assay type: cell-based; details: Homo sapiens, HEC-251
EN = assay: CFA 10-14 day clonogenic assay; assay type: cell-based; details: Homo sapiens
HEC59 = assay: 4 day proliferation assay (CellTiter-Glo); details: Homo sapiens, 96 h, read-out: 4 day assay GI50
[1] = test system: CYP (all isoforms tested); assay: CYP inhibition; assay type: in vitro ADME
MDCK LE permeability = assay type: in vitro ADME, canine; details: dog
RL952 = assay: CFA 10-14 day clonogenic assay; assay type: cell-based; details: Homo sapiens, RL95-2
LIM2405 = assay: CFA 10-14 day clonogenic assay; assay type: cell-based; details: Homo sapiens
Ishikawa [2] = assay: 4 day proliferation assay (CellTiter-Glo); details: Homo sapiens, 96 h, read-out: 4 day assay GI50
CW2 = assay: 4 day proliferation assay (CellTiter-Glo); details: Homo sapiens, CW-2, 96 h, read-out: 4 day assay GI50
SNGM = assay: 4 day proliferation assay (CellTiter-Glo); details: Homo sapiens, 96 h, read-out: 4 day assay GI50
HEC151 = assay: CFA 10-14 day clonogenic assay; assay type: cell-based; details: Homo sapiens
OVK18 = assay: CFA 10-14 day clonogenic assay; assay type: cell-based; details: Homo sapiens
OC314 = assay: CFA 10-14 day clonogenic assay; assay type: cell-based; details: Homo sapiens, OC-314
SNU1 [3] = assay: CFA 10-14 day clonogenic assay; assay type: cell-based; details: Homo sapiens
SNU1 [4] = assay: 4 day proliferation assay (CellTiter-Glo); details: Homo sapiens, SNU1, 96 h, read-out: 4 day assay GI50
TGBC11TKB = assay: CFA 10-14 day clonogenic assay; assay type: cell-based; details: Homo sapiens
Ishikawa [5] = assay: CFA 10-14 day clonogenic assay; assay type: cell-based; details: Homo sapiens
RKO = assay: 4 day proliferation assay (CellTiter-Glo); details: Homo sapiens, 96 h, read-out: 4 day assay GI50
SW48 xenografts = assay: SW48 xenograft efficacy, compound 3 p.o. twice daily; assay type: in vivo, mouse; details: for Tumour volume (TVol): single mouse, listed as WRNi #4
Protocol: All animal studies were conducted in accordance with ethics and procedures covered by permit BS-2275 and BS-1975 issued by the Kantonales Veterinäramt Basel-Stadt and in strict adherence to guidelines of the Eidgenössisches Tierschutzgesetz and the Eidgenössische Tierschutzverordnung, Switzerland. All animal studies were approved by the internal ethics committee. All animals had access to food and water ad libitum and were identified with transponders. They were housed in a specific-pathogen-free facility in IVC racks under a 12 h–12 h light–dark cycle. To establish cell-line-derived xenograft models, 6–7-week-old female athymic nude (Crl:NU(NCr)-Foxn1^nu) or SCID-BEIGE (CB17.Cg-PrkdcscidLystbg-J/Crl) mice from Charles River were engrafted subcutaneously with 5 million tumour cells in HBSS (H6648, Sigma-Aldrich). For SNU-407, Lovo, IM95, RL95.2, Ishikawa and IGROV-1, the cells were concentrated in 50% Matrigel (354234, Corning). Patient-derived xenografts were induced and expanded by transplantation as previously described. […] For the efficacy experiment, mice were randomized into groups (n = 5–6) for a mean tumour size of 100–150 mm^3. […] Blood samples were collected on day 7 and 91. […] Tumour responses are reported with the measures of tumour volumes from the treatment start. […] Animals were randomized (n = 3) and tumour samples were collected at 0, 1, 4, 8 and 24 h on the first day and then collected 4 h after the last treatment on day 3, 8, 10, 14 (including a 24 h timepoint), 17 and 21. Tumours were excised, weighed, either frozen in liquid nitrogen and cryogenic dry pulverized with the CryoPrep system (model CP-02, Covaris) or processed to FFPE after fixation. […] On day 12, blood samples were collected for PK analysis. On the last day (3 h after the last treatment), tumours were excised, weighed, frozen in liquid nitrogen and cryogenic dry pulverized for PD analysis.

CCc1c(N2CCN(C(=O)c3ncnc(C)c3O)CC2)c(=O)n2nc(C3=CCOCC3)nc2n1CC(=O)Nc1ccc(C(F)(F)F)cc1Cl [HRO761]
start of WRN degradation (HCT116 cells): 8 h
GI50 (LS411N): 30 nM
PXR activation (PXR): No PXR
GI50 (HCT116; Homo sapiens, HCT-116, 96 h, read-out: 4 day assay GI50, HCT116): 116 nM
GI50 (HCT116; read-out: 4 day assay GI50, HCT116): 143 nM
GI50 (HEC251): ≥ 10000 nM
GI50 (EN): ≥ 10000 nM
GI50 (HEC59): ≥ 10000 nM
IC50 [1]: > 25000 nM
Papp A→B (MDCK LE permeability; A-B): 30 ×10⁻⁶ cm/s
Papp (MDCK LE permeability; Fig. 1b): 31 ×10⁻⁶ cm/s
GI50 (RL952): 16 nM
GI50 (LIM2405): 452 nM
GI50 (Ishikawa [2]): 228 nM
GI50 (CW2): 112 nM
GI50 (SNGM): ≥ 10000 nM
GI50 (HEC151): 303 nM
GI50 (OVK18): 150 nM
GI50 (OC314): 4630 nM
GI50 (SNU1 [3]): ≥ 10000 nM
GI50 (SNU1 [4]): ≥ 10000 nM
GI50 (TGBC11TKB): 44 nM
GI50 (Ishikawa [5]): 51 nM
GI50 (RKO): 2910 nM

CCc1c(N2CCN(C(=O)c3ncccc3O)CC2)c(=O)n2nc(C3=CCOCC3)nc2n1CC(=O)Nc1ccc(C(F)(F)F)cc1C [compound 3]
Mean TVol (SW48 xenografts; 15mg/kg BID, day 0): 186.30 mm3
Tumour volume (TVol) (SW48 xenografts; 15mg/kg BID, day 0): 125.21 mm3 and 176.57 mm3 and 158.22 mm3 and 139.01 mm3 and 236.47 mm3 and 285.36 mm3 and 183.25 mm3
Mean TVol (SW48 xenografts; 15mg/kg BID, day 4): 363.88 mm3
Tumour volume (TVol) (SW48 xenografts; 15mg/kg BID, day 4): 335.90 mm3 and 349.83 mm3 and 278.60 mm3 and 343.34 mm3 and 317.21 mm3 and 499.75 mm3 and 422.53 mm3
Mean TVol (SW48 xenografts; 15mg/kg BID, day 6): 401.70 mm3
Tumour volume (TVol) (SW48 xenografts; 15mg/kg BID, day 6): 446.30 mm3 and 500.68 mm3
Mean TVol (SW48 xenografts; 15mg/kg BID, day 8): 483.57 mm3
Mean TVol (SW48 xenografts; 15mg/kg BID, day 11): 653.78 mm3
Tumour volume (TVol) (SW48 xenografts; 15mg/kg BID, day 11): 649.03 mm3 and 796.01 mm3 and 408.88 mm3 and 697.95 mm3 and 448.35 mm3 and 901.30 mm3 and 674.92 mm3
Mean TVol (SW48 xenografts; 15mg/kg BID, day 13): 737.71 mm3
Tumour volume (TVol) (SW48 xenografts; 15mg/kg BID, day 13): 506.43 mm3 and 897.69 mm3 and 575.84 mm3 and 720.03 mm3 and 530.25 mm3 and 1055.13 mm3 and 878.60 mm3
Mean TVol (SW48 xenografts; 50mg/kg BID, day 0): 186.25 mm3
Tumour volume (TVol) (SW48 xenografts; 50mg/kg BID, day 0): 104.69 mm3 and 206.32 mm3 and 158.46 mm3 and 258.06 mm3 and 184.54 mm3 and 140.44 mm3 and 251.24 mm3
Mean TVol (SW48 xenografts; 50mg/kg BID, day 4): 286.97 mm3
Tumour volume (TVol) (SW48 xenografts; 50mg/kg BID, day 4): 175.53 mm3 and 349.15 mm3 and 205.03 mm3 and 394.61 mm3 and 285.83 mm3 and 247.36 mm3 and 351.29 mm3
Mean TVol (SW48 xenografts; 50mg/kg BID, day 6): 317.35 mm3
Tumour volume (TVol) (SW48 xenografts; 50mg/kg BID, day 6): 143.51 mm3 and 438.53 mm3 and 201.74 mm3 and 334.71 mm3 and 301.07 mm3 and 265.24 mm3 and 536.64 mm3
Mean TVol (SW48 xenografts; 50mg/kg BID, day 8): 332.70 mm3
Mean TVol (SW48 xenografts; 50mg/kg BID, day 11): 410.64 mm3
Tumour volume (TVol) (SW48 xenografts; 50mg/kg BID, day 11): 304.71 mm3 and 545.58 mm3 and 199.89 mm3 and 340.76 mm3 and 293.59 mm3 and 390.68 mm3 and 799.25 mm3
Mean TVol (SW48 xenografts; 50mg/kg BID, day 13): 453.33 mm3
Tumour volume (TVol) (SW48 xenografts; 50mg/kg BID, day 13): 281.31 mm3 and 743.48 mm3 and 206.77 mm3 and 483.85 mm3 and 288.10 mm3 and 511.66 mm3 and 658.13 mm3
tumour response (SW48 xenografts; 150 mg per kg orally twice daily): stable disease
Mean TVol (SW48 xenografts; 150mg/kg BID, day 0): 186.70 mm3
Tumour volume (TVol) (SW48 xenografts; 150mg/kg BID, day 0 post 1st dose): 121.54 mm3 and 271.88 mm3 and 115.87 mm3 and 175.12 mm3 and 222.88 mm3 and 177.21 mm3 and 222.42 mm3
Mean TVol (SW48 xenografts; 150mg/kg BID, day 4): 226.51 mm3
Tumour volume (TVol) (SW48 xenografts; 150mg/kg BID, day 4): 200.34 mm3 and 361.96 mm3 and 112.57 mm3 and 220.17 mm3 and 244.46 mm3 and 160.01 mm3 and 286.05 mm3
Mean TVol (SW48 xenografts; 150mg/kg BID, day 6): 224.94 mm3
Tumour volume (TVol) (SW48 xenografts; 150mg/kg BID, day 6): 174.76 mm3 and 361.01 mm3 and 147.06 mm3 and 189.44 mm3 and 231.82 mm3 and 170.17 mm3 and 300.33 mm3
Mean TVol (SW48 xenografts; 150mg/kg BID, day 8): 196.74 mm3
Mean TVol (SW48 xenografts; 150mg/kg BID, day 11): 203.13 mm3
Tumour volume (TVol) (SW48 xenografts; 150mg/kg BID, day 11): 147.98 mm3 and 318.20 mm3 and 124.24 mm3 and 228.02 mm3 and 223.70 mm3 and 145.76 mm3 and 234.03 mm3
Mean TVol (SW48 xenografts; 150mg/kg BID, day 13): 172.38 mm3
Tumour volume (TVol) (SW48 xenografts; 150mg/kg BID, day 13): 158.96 mm3 and 252.06 mm3 and 121.12 mm3 and 163.89 mm3 and 181.33 mm3 and 166.20 mm3 and 163.13 mm3
Reg (SW48 xenografts; 150 mg/kg p.o. twice daily): 4 % Reg

— article PMC11078746 (Nature, 2024)
